Measured values from ChEMBL document CHEMBL3108687, “Isolation and structures of pipecolidepsins A and B, cytotoxic cyclic depsipeptides from the Madagascan sponge Homophymia lamellosa” (2014).

What was measured:
Format in all cases: functional
[1] = system: MDA-MB-231; assay: Growth inhibition of human MDA-MB-231 cells after 72 hrs by sulforhodamine B assay; details: MDA-MB-231, 72 h
[2] = system: HT-29; assay: Growth inhibition of human HT-29 cells after 72 hrs by sulforhodamine B assay; details: HT-29, 72 h
[3] = system: A549; assay: Growth inhibition of human A549 cells after 72 hrs by sulforhodamine B assay; details: A549, 72 h

Row | GI50 [1] | GI50 [2] | GI50 [3] | SMILES
1 | 0.7 µM | 1.12 µM | 0.6 µM | CCO[C@H](C(N)=O)[C@@H]1NC(=O)[C@H](CCC(N)=O)N(C)C(=O)[C@H](CC(C)C)NC(=O)[C@@H](CCCCN)NC(=O)[C@@H]([C@@H](C)O)NC(=O)[C@H](NC(=O)[C@@H](NC(=O)[C@H](O)[C@H](O)[C@H](CCC(N)=O)NC(=O)[C@@H](CC(=O)O)NC(=O)[C@H](C)[C@H](O)[C@H](C)CC(C)C)[C@@H](C)[C@@H](C)C(N)=O)[C@@H]([C@H](C)C(C)C)OC(=O)[C@@H]2CCCCN2C(=O)[C@@H](CC(=O)O)NC1=O
2 | 0.02 µM | 0.01 µM | 0.04 µM | CCO[C@H](C(N)=O)[C@@H]1NC(=O)[C@H](CCC(N)=O)N(C)C(=O)[C@H](CC(C)C)NC(=O)[C@@H](CCCCN)NC(=O)[C@@H]([C@@H](C)O)NC(=O)[C@H](NC(=O)[C@@H](NC(=O)[C@H](O)[C@H](O)[C@H](CCC(N)=O)NC(=O)[C@H](NC(=O)[C@H](C)[C@H](O)[C@H](C)CC(C)C)[C@H](O)C(=O)O)[C@@H](C)[C@@H](C)C(N)=O)[C@@H]([C@H](C)C(C)C)OC(=O)[C@@H]2CCCCN2C(=O)[C@@H](CC(=O)O)NC1=O
